Assays:
HEK-293T = experiment: Incucyte cell viability with HEK293T; format: toxicity, cell-based; conditions: human, 10 µM, compound concentration 10 uM
Fibroblast = experiment: Incucyte cell viability with human fibroblast; format: toxicity, cell-based; conditions: 10 µM, compound concentration 10 uM
[1] = 6 h, replicate number 1, timepoint 6 hours
[2] = 12 h, replicate number 1, timepoint 12 hours
[3] = 18 h, replicate number 1, timepoint 18 hours
[4] = 24 h, replicate number 1, timepoint 24 hours
[5] = 0 h, replicate number 1, timepoint 0 hours
[6] = 24 h, replicate number 2, timepoint 24 hours
[7] = 0 h, replicate number 2, timepoint 0 hours
[8] = 6 h, replicate number 2, timepoint 6 hours
[9] = 12 h, replicate number 2, timepoint 12 hours
[10] = 18 h, replicate number 2, timepoint 18 hours
Further: filed as whole numbers so only -1 and 0 and 1 occur.

SMILES | Growth Rate (HEK-293T; [1]) | Growth Rate (HEK-293T; [2]) | Growth Rate (HEK-293T; [3]) | Growth Rate (HEK-293T; [4]) | Growth Rate (Fibroblast; [5]) | Growth Rate (Fibroblast; [1]) | Growth Rate (Fibroblast; [2]) | Growth Rate (Fibroblast; [3]) | Growth Rate (Fibroblast; [4]) | Growth Rate (Fibroblast; [6]) | Growth Rate (HEK-293T; [7]) | Growth Rate (Fibroblast; [7]) | Growth Rate (Fibroblast; [8]) | Growth Rate (HEK-293T; [5]) | Growth Rate (Fibroblast; [9]) | Growth Rate (Fibroblast; [10]) | Growth Rate (HEK-293T; [8]) | Growth Rate (HEK-293T; [9])
CCc1cccc(CC)c1NC(=O)c1nn(C)c2c1CCc1cnc(Nc3ccc(C(=O)NC4CCN(C)CC4)cc3OC(F)(F)F)nc1-2 | 0 | 0 | 0 | 0 | 0 | 1 | 0 | 0 | 0 | 1 | – | – | – | – | – | – | – | –
O=C(Nc1cccnn1)N1CCC(=Cc2cccc(Oc3ccc(C(F)(F)F)cn3)c2)CC1 | 0 | 0 | 0 | 0 | 0 | 0 | 0 | 0 | 0 | 1 | 1 | – | – | – | – | – | – | –
CCNc1cc(N[C@H]2CC[C@H](O)CC2)nc(Nc2ccc3c(ccn3Cc3ccccc3)c2)n1 | 0 | 0 | 0 | 0 | – | 0 | 0 | 0 | 0 | – | – | – | – | – | – | – | – | –
O=C1N/C(=N/c2ccccc2F)S/C1=C\c1ccc(C(=O)O)cc1 | – | 1 | – | 1 | – | – | – | – | 0 | – | – | – | – | – | – | – | – | –
CNc1cc(Oc2cc(C(=O)Nc3cc(N4CCN(C)CC4)cc(C(F)(F)F)c3)ccc2C)ncn1 | 0 | 0 | 0 | 0 | 0 | 0 | 0 | 0 | 0 | – | – | – | – | – | – | – | – | –
Cl.O=C(c1ccc(Nc2nccc(-c3cc4ccccc4s3)n2)cc1)N1CCC(N2CCCC2)CC1 | 0 | 0 | 0 | 0 | 0 | 0 | 0 | 0 | 0 | – | – | – | – | – | – | – | – | –
COc1ccc(S(=O)(=O)N(CCO)c2ccccc2CN(C)C/C=C/c2ccc(Cl)cc2)cc1.O=P(O)(O)O | 0 | 0 | 0 | 0 | – | 0 | 0 | 0 | 0 | – | – | 1 | 1 | – | – | – | – | –
CCOC(=O)c1c(C)[nH]c2ccc3c(c12)CN1CCc2cc(OC)ccc2C1O3 (stereo unspecified) | 0 | 0 | 0 | 0 | – | 0 | 0 | 0 | 0 | – | 0 | – | – | – | – | – | – | –
C=CCn1c(=O)c2cnc(Nc3ccc(N4CCN(C)CC4)cc3)nc2n1-c1cccc(C(C)(C)O)n1 [ADAVOSERTIB] | 0 | 0 | 0 | 0 | 0 | 0 | 0 | 0 | 0 | – | – | – | – | – | – | – | – | –
COc1cc(N2CCC(N3CCN(C)CC3)CC2)ccc1Nc1ncnc(Nc2ccccc2S(=O)(=O)C(C)C)n1 [ASP-3026] | 0 | 0 | 0 | 0 | – | 0 | 0 | 0 | 0 | – | – | 0 | – | – | – | – | – | –
O=C(Nc1ccc(-n2nc(-c3cccnc3)cc2C(F)(F)F)cn1)c1ccc(-c2ccccc2)c(F)c1 [BI 2049] | 0 | 0 | 0 | 0 | 0 | 0 | 0 | 0 | 0 | – | – | – | – | 1 | – | – | – | –
COCC(=O)NC/C=C/c1ccc2ncnc(Nc3ccc(Oc4ccc(C)nc4)c(C)c3)c2c1 [CP-724714] | 0 | 0 | 0 | 0 | 0 | – | 1 | 1 | 1 | 0 | – | – | 1 | – | 0 | 0 | – | –
COc1cc2ncnc(Nc3ccc(F)c(Cl)c3)c2cc1NC(=O)/C=C/CN1CCCCC1 [DACOMITINIB ANHYDROUS] | 0 | 0 | 0 | 0 | – | 0 | 0 | 0 | 0 | – | – | 1 | – | – | – | – | – | –
C=C1/C(=C\C=C2/CCC[C@]3(C)[C@@H]([C@H](C)/C=C/[C@H](C)C(C)C)CC[C@@H]23)C[C@@H](O)C[C@@H]1O [DOXERCALCIFEROL] | 0 | 0 | 0 | 0 | 0 | – | 1 | 1 | 0 | – | – | – | 0 | 0 | 0 | 0 | – | –
CCCn1c(=O)c2[nH]c(-c3cnn(Cc4cccc(C(F)(F)F)c4)c3)nc2n(CC)c1=O [GS 6201] | 0 | 0 | 0 | 0 | 0 | – | – | 1 | 1 | – | 0 | – | – | 1 | – | – | 1 | 1
CCn1cc(-c2ccnc3[nH]c(-c4cccc(CN(C)C)c4)cc23)c(-c2ccc(NC(=O)N(C)C)cc2)n1 [GSK-1070916] | 0 | 0 | 0 | 0 | 0 | 1 | 0 | 0 | 0 | – | 1 | – | – | – | 1 | – | – | –
CCN1CCN(c2ccc(Nc3cc(N(C)C(=O)Nc4c(Cl)c(OC)cc(OC)c4Cl)ncn3)cc2)CC1 [INFIGRATINIB] | 0 | 0 | 0 | 0 | 0 | 1 | 1 | 0 | 0 | – | – | – | – | – | – | – | – | –
CN1CCC(=C2c3ccccc3CC(=O)c3sccc32)CC1.O=C(O)/C=C/C(=O)O [KETOTIFEN FUMARATE] | 0 | 0 | 0 | 0 | 0 | 0 | 0 | 0 | 0 | – | 1 | – | – | – | – | – | – | –
COc1ccc(-c2ccc3c(N4CCOCC4)nc(N4C[C@@H](C)O[C@@H](C)C4)nc3n2)cc1CO [Ku-0063794] | 0 | 0 | 0 | 0 | 1 | – | 1 | 1 | 0 | – | – | – | 1 | – | 0 | 0 | – | –
CN(C)C(=O)C(CCN1CCC(O)(c2ccc(Cl)cc2)CC1)(c1ccccc1)c1ccccc1.Cl [LOPERAMIDE HYDROCHLORIDE] | 0 | 0 | 0 | 0 | – | 0 | 0 | 0 | 0 | – | 1 | – | – | – | – | – | – | –
C[C@H]1Oc2cc(cnc2N)-c2c(nn(C)c2C#N)CN(C)C(=O)c2ccc(F)cc21 [LORLATINIB] | 0 | 0 | 0 | 0 | – | 0 | 0 | 0 | 0 | – | – | 0 | – | 0 | – | – | – | –

Reference: ChEMBL document CHEMBL4689842, “EUbOPEN Chemogenomics Library wave 1” (2021)
